Experimental data taken from patent US8865723B2, “Selective PDE4 B inhibition and improvement in cognition in subjects with brain injury” (Tetra Discovery Partners LLC, priority 2012, dated 2014).

Columns and labels:
[1] = tested on: traumatic brain injury (TBI) rats; assay: Working memory version of the water maze task, week 14 post-surgery; type: in vivo, Sprague Dawley rats; conditions: 0.3 mg/kg 30 min prior to testing
Excerpt: Sprague Dawley rats were subjected to moderate parasagittal fluid-percussion brain injury using methods described in Atkins et al, J Neurosci Res 90, 1861-71 (2012). Adult male Sprague Dawley rats (280-300 g; Charles Rivers Laboratories) were anesthetized with 3% isoflurane, 70% N2O, and 30% O2 and received a 4.8-mm craniotomy (3.8 mm posterior to bregma, 2.5 mm lateral to the midline) over the right parietal cortex. Twenty-four hours after the craniotomy, the animals were re-anesthetized (3% isoflurane, 70% N2O, and 30% O2); immobilized with pancuronium bromide (1.0 mg/kg); and mechanically ventilated with 1% isoflurane, 70% N2O, and 30% O2. When physiological measurements had stabilized, the animals received a fluid-percussion pulse (1.8-2.2 atmospheres, 14-16 msec) or sham injury with the fluid-percussion brain injury device. Blood gases, blood pH, and mean arterial blood pressure were monitored for 30 min prior to the fluid percussion brain injury or sham surgery and for up to 1 hr post-injury to maintain normal levels. Injured and sham injured rats were coded such that the investigator assessing the behavior of the animals would not know their injury status. […]
To assess working memory in TBI animals, a working memory version of the water maze task was used on week 14 post-surgery. […] Escape latency differences between the first location trial and subsequent match trial were measured.

[2] = tested on: traumatic brain injury (TBI) rats; assay: Water maze test (acquisition and probe trial) 12 weeks after fluid-percussion brain injury; type: in vivo, Sprague Dawley rats
Excerpt: Sprague Dawley rats were subjected to moderate parasagittal fluid-percussion brain injury using methods described in Atkins et al, J Neurosci Res 90, 1861-71 (2012). Adult male Sprague Dawley rats (280-300 g; Charles Rivers Laboratories) were anesthetized with 3% isoflurane, 70% N2O, and 30% O2 and received a 4.8-mm craniotomy (3.8 mm posterior to bregma, 2.5 mm lateral to the midline) over the right parietal cortex. Twenty-four hours after the craniotomy, the animals were re-anesthetized (3% isoflurane, 70% N2O, and 30% O2); immobilized with pancuronium bromide (1.0 mg/kg); and mechanically ventilated with 1% isoflurane, 70% N2O, and 30% O2. When physiological measurements had stabilized, the animals received a fluid-percussion pulse (1.8-2.2 atmospheres, 14-16 msec) or sham injury with the fluid-percussion brain injury device. Blood gases, blood pH, and mean arterial blood pressure were monitored for 30 min prior to the fluid percussion brain injury or sham surgery and for up to 1 hr post-injury to maintain normal levels. Injured and sham injured rats were coded such that the investigator assessing the behavior of the animals would not know their injury status.
2-(4-(2-(5-chlorothiophen-2-yl)-5-ethyl-6-methylpyrimidin-4-yl)amino)phenyl)acetic acid (Compound 33) was dissolved in 100% dimethylsulfoxide (DMSO) at 1 mg/ml and then diluted 20 fold into 0.9% sodium chloride (saline) with 2 molar equivalents of sodium hydroxide (0.258 mM) to yield a final concentration of Compound 33 at 0.05 mg/ml in 5% DMSO saline. Rats treated with vehicle received 5% DMSO in saline. Four treatment groups were studied; TBI rats treated with vehicle, TBI rats treated with Compound 33, sham rats treated with vehicle, and sham rats treated with Compound 33. Compound 33 and vehicle were delivered by intraperitoneal injection. Compound 33 was administered at a dose of 0.3 mg/kg. […] At 12 weeks after surgery, the rats were administered either vehicle or Compound 33 only 30 minutes prior to training on the water maze test.
Twelve weeks after surgery, rats were tested for cognitive ability using the water maze test. Animals received vehicle or Compound 33 (0.3 mg/kg, i.p.) 30 min prior to water maze training. The circular pool (122 cm diameter, 60 cm deep) was filled with opaque water at 24° C. and surrounded by distinct, invariant extramaze cues. An escape platform, 9.3 cm in diameter, was submerged 1.5 cm below the water surface. Animals received four 60 s acquisition trials per day for 4 days with inter-trial intervals of 4 min. […] Path length to reach the platform, escape latency, and swim speed were analyzed with EthoVision software (Noldus Information Technology). […]

[3] = tested on: subjects suffering a brain injury; conditions: administered 1 hour after the injury; cited from earlier work
normal uninjured brains = conditions: cited from earlier work
brain injury = conditions: within 30 minutes of a brain injury; cited from earlier work
[4] = 0.3 mg/kg i.p. 30 min prior to training, 4 training days, 12 weeks after surgery

CCc1c(C)nc(-c2ccc(Cl)s2)nc1Nc1ccc(CC(=O)O)cc1 [Compound 33]
working memory (escape latency difference between location and match trial) [1]: this deficit was rescued by Compound 33 treatment | escape latency to reach the hidden platform during acquisition [2, 4]: progressive decrease | path length to reach the hidden platform during acquisition [2, 4]: progressive decrease | indices of learning (escape latency and path length) on the 4th day of acquisition ([2]; 0.3 mg/kg i.p., 4th day of acquisition, versus sham animals): comparable to sham animals treated with vehicle or Compound 33 | time in the target quadrant, probe trial (retention) ([2]; 24 h after last acquisition trial, platform removed, no drug on probe day): spent less time in the target quadrant as compared to Compound 33-treated TBI animals

CC(=O)CCCCn1c(=O)c2c(ncn2C)n(C)c1=O [pentoxyfilline]
TNF-α [3]: reduced TNF-α | outcomes after brain injury [3]: improved outcomes

COc1ccc(C2CNC(=O)C2)cc1OC1CCCC1 (stereo not drawn) [rolipram]
learning and memory (normal uninjured brains): improve learning and memory | effect on brain injury (brain injury): exacerbates the brain injury
